Our source for the IC50 values is patent publication US20230348467A1, “Heteroaryl Derivative, Preparation Method Therefor, And Use Thereof” (Zhejiang Hisun Pharmaceutical Co., Ltd., priority 2020, published 2023).

In assay [1] the target is recombinant human full-length SHP2 (Homo sapiens (Human), UniProt Q06124). The assay is described as follows: Allosteric inhibition of full-length SHP2 enzyme (DiFMUP fluorescence). Format: biochemical. The following applies: full-length SHP2 0.5 nM, activating peptide 0.5 uM, DiFMUP substrate. The source says:
The following method was used to determine the inhibition degrees of the compounds of the present invention on the activity of recombinant human full-length SHP2 in vitro. SHP2 was allosterically activated by the binding of di-tyrosyl-phosphorylated peptide to a Src homologous 2(SH2) domain of SHP2. An activation step of the latter leads to the self-inhibitory interface release of SHP2, and then activates SHP2 protein tyrosine phosphatase (PTP), which might be used for substrate recognition and reaction catalysis.
The experimental process was briefly described as follows: Test compounds were first dissolved in DMSO to prepare storage solutions. […] Then, the compounds to be tested were added in a concentration range of 0.00004-10 uM and incubated at 25° C. for 60 minutes. Then DiFMUP (Thermo, D6567) was added in the reaction and incubated at 25° C. for 30 minutes. After incubation, readings were taken using a microplate reader (BMG) with excitation and emission wavelengths of 340 nm and 450 nm, respectively.

The subject of assay [2] is NCI-H23 cells (containing KRAS G12C mutation). Description: Inhibition of NCI-H23 cell proliferation (CellTiter-Glo). Format: cell-based. The following applies: Homo sapiens, 120 hours culture. As for the experimental part: The following method was used to determine the effects of the compounds of the present invention on NCI-H23 cell proliferation. NCI-H23 cells (containing KRAS G12C mutation) were purchased from Cell Resource Center of Shanghai Institutes for Biological Sciences, Chinese Academy of Sciences, and cultured in RPMI 1640 mediums containing 10% fetal bovine serum, 100 U penicillin, 100 μg/mL streptomycin and 1 mM Sodium Pyruvate. The activities of the cells were determined by CellTiter-Glo® Luminescent Cell Viability Assay kit (Promega, article number: G7573).
(§1) The experimental method was operated according to the steps in the kit instruction, and was briefly described as follows: test compounds were first dissolved in DMSO to prepare storage solutions of 10 mM, and then diluted in mediums, prepared as test samples. The final concentrations of the test compounds were 10,000 nM to 1.52 nM. The cells in logarithmic phase were inoculated in a 96-well cell culture plate with 1,000 cells per well, after cultured overnight in 5% CO2 incubator at 37° C., the test compounds were added to the incubator to continue the culture for 120 hours. After the culture, 50 μL of CellTiter-Glo detection solution was added to each well, shaken for 5 minutes, and then stood for 10 minutes. Then, a Luminescence mode was used to read the luminescence values of each well of the samples on a microplate reader. Compared with the numerical value of a control group (0.3% DMSO), the percentage inhibition rates of the compounds at each concentration were calculated, and the IC50 values of the compounds inhibiting cell proliferation were obtained by performing nonlinear regression analysis with logarithmic values of the compound concentration—inhibition rate by GraphPad Prism 5 software, which was shown in Table 2.
(ATP-based viability assays read luminescence as a measure of living cells.)

Assay [3] relates to NCI-H358 cells (containing KRAS G12C mutation). The assay is described as follows: Inhibition of NCI-H358 cell proliferation (CellTiter-Glo). Format: cell-based. The conditions noted are these: Homo sapiens, NCI-H358, 120 h, read-out: IC50(nM)/NCI-H358. As for the experimental part:
The following method was used to determine the effects of the compounds of the present invention on NCI-H358 cell proliferation. NCI-H358 cells (containing KRAS G12C mutation) were purchased from Cell Resource Center of Shanghai Institutes for Biological Sciences, Chinese Academy of Sciences, and cultured in RPMI 1640 mediums containing 10% fetal bovine serum, 100 U penicillin, 100 μg/mL streptomycin and 1 mM Sodium Pyruvate. The activities of the cells were determined by CellTiter-Glo® Luminescent Cell Viability Assay kit (Promega, article number: G7573).
as §1, with “of the” for “of a”, “Table 3.” for “Table 2.”

Sequence of recombinant human full-length SHP2 (Q06124 whole entry): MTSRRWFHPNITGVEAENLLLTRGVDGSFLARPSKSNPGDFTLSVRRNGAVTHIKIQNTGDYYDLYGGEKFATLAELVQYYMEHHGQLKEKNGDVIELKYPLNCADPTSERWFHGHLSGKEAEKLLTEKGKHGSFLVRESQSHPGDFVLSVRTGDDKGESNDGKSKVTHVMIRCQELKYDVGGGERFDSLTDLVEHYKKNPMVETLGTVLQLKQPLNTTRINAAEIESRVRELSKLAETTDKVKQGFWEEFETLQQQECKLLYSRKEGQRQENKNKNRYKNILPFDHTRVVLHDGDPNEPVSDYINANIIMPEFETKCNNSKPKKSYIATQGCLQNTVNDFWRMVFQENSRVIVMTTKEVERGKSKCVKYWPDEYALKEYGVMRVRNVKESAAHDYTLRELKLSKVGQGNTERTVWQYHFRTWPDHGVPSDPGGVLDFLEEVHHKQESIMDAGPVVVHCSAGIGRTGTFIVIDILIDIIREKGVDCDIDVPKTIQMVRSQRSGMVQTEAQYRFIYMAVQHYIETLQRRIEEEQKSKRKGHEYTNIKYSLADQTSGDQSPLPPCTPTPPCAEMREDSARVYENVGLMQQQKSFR

In the case of `CC1(N)CCN(c2nc(C(N)=O)c3c(-c4cccc(Cl)c4Cl)n[nH]c3n2)CC1` [Example 2, 6-(4-amino-4-methylpiperidin-1-yl)-3-(2,3-dichlorophenyl)-1H-pyrazolo[3,4-d]pyrimidine-4-carboxamide], in assay [1], the IC50 was found to be 29 nM.
Same read-out and setting: to `NC(=O)c1nc(N2[C@@H]3CC[C@H]2C[C@@H](N)C3)nc2[nH]nc(-c3cccc(Cl)c3Cl)c12` [Example 7, 6-((endo)-3-amino-8-azabicyclo[3.2.1]octan-8-yl)-3-(2,3-dichlorophenyl)-1H-pyrazolo[3,4-d]pyrimidine-4-carboxamide] belongs 14 nM.
On the same count and under the same terms, the figure for `NC(=O)c1nc(N2[C@@H]3CC[C@H]2C[C@H](N)C3)nc2[nH]nc(-c3cccc(Cl)c3Cl)c12` [Example 8, 6-((exo)-3-amino-8-azabicyclo[3.2.1]octan-8-yl)-3-(2,3-dichlorophenyl)-1H-pyrazolo[3,4-d]pyrimidine-4-carboxamide] is 5 nM.
In the case of `N[C@@H]1c2ccccc2CC12CCN(c1nc(C(=O)O)c3c(-c4cccc(Cl)c4Cl)n[nH]c3n1)CC2` [Example 9, (S)-6-(1-amino-1,3-dihydrospiro[indene-2,4′-piperidin]-1′-yl)-3-(2,3-dichlorophenyl)-1H-pyrazolo[3,4-d]pyrimidine-4-carboxylic acid], the IC50 in assay [2] amounted to 13 nM; in assay [1], 1 nM.
For `NC(=O)c1nc(N2CCC(N)(c3c(F)cccc3F)CC2)nc2[nH]nc(-c3cccc(Cl)c3Cl)c12` [Example 11, 6-(4-amino-4-(2,6-difluorophenyl)piperidin-1-yl)-3-(2,3-dichlorophenyl)-1H-pyrazolo[3,4-d]pyrimidine-4-carboxamide], in assay [1], the IC50 came to 17 nM.
Same read-out and setting: the figure for `CC1(N)CCN(c2nc(C(N)=O)c3c(-c4cccc(Br)c4Cl)n[nH]c3n2)CC1` [Example 12, 6-(4-amino-4-methylpiperidin-1-yl)-3-(3-bromo-2-chlorophenyl)-1H-pyrazolo[3,4-d]pyrimidine-4-carboxamide] is 8 nM; for `NC(=O)c1nc(N2CCC(N)(CO)CC2)nc2[nH]nc(-c3cccc(Cl)c3Cl)c12` [Example 13, 6-(4-Amino-4-(hydroxymethyl)piperidin-1-yl)-3-(2,3-dichlorophenyl)-1H-pyrazolo[3,4-d]pyrimidine-4-carboxamide] it is 10 nM; for `NC(=O)c1nc(N2CCC(N)CC2)nc2[nH]nc(-c3cccc(Cl)c3Cl)c12` [Example 15, 6-(4-Aminopiperidin-1-yl)-3-(2,3-dichlorophenyl)-1H-pyrazolo[3,4-d]pyrimidine-4-carboxamide] it is 24 nM.
Regarding `NC1(c2ccccc2Cl)CCN(c2nc(C(=O)O)c3c(-c4cccc(Cl)c4Cl)n[nH]c3n2)CC1` [Example 23, 6-(4-amino-4-(2-chlorophenyl)piperidin-1-yl)-3-(2,3-dichlorophenyl)-1H-pyrazolo[3,4-d]pyrimidine-4-carboxylic acid], the IC50 in assay [1] was determined as 2 nM.
Still for that read-out and setting: the figure for `NC1(c2ccc(Cl)cc2)CCN(c2nc(C(=O)O)c3c(-c4cccc(Cl)c4Cl)n[nH]c3n2)CC1` [Example 24, 6-(4-amino-4-(4-chlorophenyl)piperidin-1-yl)-3-(2,3-dichlorophenyl)-1H-pyrazolo[3,4-d]pyrimidine-4-carboxylic acid] is 5 nM.
As for `NC1(c2cccc(Cl)c2)CCN(c2nc(C(=O)O)c3c(-c4cccc(Cl)c4Cl)n[nH]c3n2)CC1` [Example 25, 6-(4-amino-4-(3-chlorophenyl)piperidin-1-yl)-3-(2,3-dichlorophenyl)-1H-pyrazolo[3,4-d]pyrimidine-4-carboxylic acid], the IC50 in assay [1] came to 5 nM.
Still for that read-out and setting: to `Cc1cccc(-c2n[nH]c3nc(N4CCC(N)(c5ccccc5)CC4)nc(C(N)=O)c23)c1Cl` [Example 29, 6-(4-amino-4-phenylpiperidin-1-yl)-3-(2-chloro-3-methylphenyl)-1H-pyrazolo[3,4-d]pyrimidine-4-carboxamide] belongs 3 nM; to `NC1(c2ccccc2)CCN(c2nc(-c3nnn[nH]3)c3c(-c4cccc(Cl)c4Cl)n[nH]c3n2)CC1` [Example 30, 1-(3-(2,3-dichlorophenyl)-4-(1H-tetrazol-5-yl)-1H-pyrazolo[3,4-d]pyrimidin-6-yl)-4-phenylpiperidin-4-amine], 3 nM.
Same read-out and setting: to `COc1nccc(-c2n[nH]c3nc(N4CCC(N)(c5ccccc5F)CC4)nc(C(N)=O)c23)c1Cl` [Example 32, 6-(4-amino-4-(2-fluorophenyl)piperidin-1-yl)-3-(3-chloro-2-methoxypyridin-4-yl)-1H-pyrazolo[3,4-d]pyrimidine-4-carboxamide] belongs 10 nM; to `NC(=O)c1nc(N2CCC(N)(c3ccccn3)CC2)nc2[nH]nc(-c3cccc(Cl)c3Cl)c12` [Example 38, 6-(4-amino-4-(pyridin-2-yl)piperidin-1-yl)-3-(2,3-dichlorophenyl)-1H-pyrazolo[3,4-d]pyrimidine-4-carboxamide], 27 nM.
The same measure, in the same setting: to `COc1ccc(C2(N)CCN(c3nc(C(N)=O)c4c(-c5cccc(Cl)c5Cl)n[nH]c4n3)CC2)cc1` [Example 46, 6-(4-amino-4-(4-methoxyphenyl)piperidin-1-yl)-3-(2,3-dichlorophenyl)-1H-pyrazolo[3,4-d]pyrimidine-4-carboxamide] belongs 3 nM; to `NC(=O)c1nc(N2CCC(N)(c3ccccc3)CC2)nc2[nH]cc(-c3cccc(Cl)c3Cl)c12` [Example 53, 2-(4-amino-4-phenylpiperidin-1-yl)-5-(2,3-dichlorophenyl)-7H-pyrrolo[2,3-d]pyrimidine-4-carboxamide], 11 nM.
Consider `Cc1nc(N2CCC3(CC2)CO[C@@H](C)[C@H]3N)c(CO)nc1-c1cccc(Cl)c1Cl` [RMC-4550, reference compound], for which the IC50 in assay [3] worked out at 80 nM; in assay [2] it was 240 nM.
